The text below walks through data of patent publication US8642592B2, “Oxo-heterocyclically substituted alkyl carboxylic acids and use thereof” (Bayer Intellectual Property GmbH, priority 2009, dated 2014).

One experiment concerns the target T1, Heme-free sGC (Rattus norvegicus, UniProt P20595).
T1 construct: made in house; host or cells: baculovirus/Sf9 insect cells
T1 sequence (P20595 1-619): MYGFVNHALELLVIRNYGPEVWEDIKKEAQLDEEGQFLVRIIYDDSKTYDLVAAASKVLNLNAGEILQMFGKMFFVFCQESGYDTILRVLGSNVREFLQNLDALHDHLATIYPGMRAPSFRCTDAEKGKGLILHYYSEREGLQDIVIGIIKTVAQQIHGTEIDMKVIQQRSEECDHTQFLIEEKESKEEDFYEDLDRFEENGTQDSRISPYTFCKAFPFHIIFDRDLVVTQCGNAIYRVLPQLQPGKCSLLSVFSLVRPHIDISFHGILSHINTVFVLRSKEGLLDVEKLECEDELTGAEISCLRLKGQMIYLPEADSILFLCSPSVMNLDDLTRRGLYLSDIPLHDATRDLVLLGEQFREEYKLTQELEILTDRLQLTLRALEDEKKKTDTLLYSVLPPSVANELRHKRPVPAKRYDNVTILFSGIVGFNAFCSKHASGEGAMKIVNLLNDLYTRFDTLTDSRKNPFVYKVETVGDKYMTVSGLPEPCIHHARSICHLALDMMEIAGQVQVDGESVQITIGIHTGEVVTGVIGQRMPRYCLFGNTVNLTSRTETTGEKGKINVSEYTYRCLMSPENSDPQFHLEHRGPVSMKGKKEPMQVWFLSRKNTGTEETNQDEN
T1 sequence (P19686 1-690 partner): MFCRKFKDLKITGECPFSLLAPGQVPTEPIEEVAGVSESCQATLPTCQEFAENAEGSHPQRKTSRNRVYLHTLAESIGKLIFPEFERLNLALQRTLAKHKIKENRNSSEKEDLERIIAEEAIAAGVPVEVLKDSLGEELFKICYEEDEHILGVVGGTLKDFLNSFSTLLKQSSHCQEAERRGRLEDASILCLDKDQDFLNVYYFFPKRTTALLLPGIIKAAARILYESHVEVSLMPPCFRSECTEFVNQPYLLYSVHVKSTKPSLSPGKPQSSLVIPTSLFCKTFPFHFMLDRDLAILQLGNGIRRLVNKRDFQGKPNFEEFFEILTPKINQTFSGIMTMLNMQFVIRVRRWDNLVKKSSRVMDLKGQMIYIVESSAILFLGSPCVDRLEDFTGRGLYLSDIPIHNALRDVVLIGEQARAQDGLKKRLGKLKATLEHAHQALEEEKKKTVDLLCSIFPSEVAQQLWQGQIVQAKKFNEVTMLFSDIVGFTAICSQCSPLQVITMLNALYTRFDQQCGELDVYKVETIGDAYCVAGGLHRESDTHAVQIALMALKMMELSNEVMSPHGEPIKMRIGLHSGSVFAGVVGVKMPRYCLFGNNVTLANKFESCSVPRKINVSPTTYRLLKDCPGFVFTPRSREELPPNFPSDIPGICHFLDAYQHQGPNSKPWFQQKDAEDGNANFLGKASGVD
Nature of the experiment: Stimulation of recombinant soluble guanylate cyclase in vitro, heme-free enzyme. In kind it is biochemical. Here is the method:
Investigations on the stimulation of recombinant soluble guanylate cyclase (sGC) by the compounds according to the invention with and without sodium nitroprusside, and with and without the heme-dependent sGC inhibitor 1H-1,2,4-oxadiazolo-(4,3a)-quinoxalin-1-one (ODQ) are carried out by the method described in detail in the following reference: M. Hoenicka, E. M. Becker, H. Apeler, T. Sirichoke, H. Schroeder, R. Gerzer and J.-P. Stasch, “Purified soluble guanylyl cyclase expressed in a baculovirus/Sf9 system: Stimulation by YC-1, nitric oxide, and carbon oxide”, J. Mol. Med. 77 (1999), 14-23. The heme-free guanylate cyclase is obtained by adding Tween 20 to the sample buffer (0.5% in the final concentration).
The activation of sGC by a test substance is reported as n-fold stimulation of the basal activity.

Another experiment has as its target T2, sGC (Rattus norvegicus, UniProt P20595).
T2 construct: expressed in transfected cells; host or cells: CHO reporter cell line
T2 sequence (P20595 1-619): T1 sequence (P20595 1-619)
T2 sequence (P19686 1-690 partner): T1 sequence (P19686 1-690 partner)
Description: sGC-activating activity in the CHO reporter cell in vitro. The format is cell-based. Here is the method: The cellular action of the compounds according to the invention is determined at a recombinant guanylate cyclase reporter cell line, as described in F. Wunder et al., Anal. Biochem. 339, 104-112 (2005).

In experiment [1] the target is T3, soluble guanylate cyclase (sGC) (Rattus norvegicus, UniProt P20595).
T3 construct: made in house; host or cells: baculovirus/Sf9 insect cells
T3 sequence (P20595 1-619): T1 sequence (P20595 1-619)
T3 sequence (P19686 1-690 partner): T1 sequence (P19686 1-690 partner)
Description: Stimulation of sGC enzyme activity (PPi/luciferase detection). In kind it is biochemical. The settings on record: sGC enzyme in vitro. Here is the method: Soluble guanylate cyclase (sGC) converts on stimulation GTP into cGMP and pyrophosphate (PPi). PPi is detected with the aid of the assay described below. The signal produced in the assay increases as the reaction progresses and serves as a measure of the sGC enzyme activity under the given stimulation.
To carry out the assay, 29 μl of enzyme solution [0-10 nM soluble guanylate cyclase (prepared according to Honicka et al., J. Mol. Med. 77, 14-23 (1999)) in 50 mM TEA, 2 mM MgCl2, 0.1% BSA (fraction V), 0.005% Brij®, pH 7.5] are initially introduced into a microplate, and 1 μl of the substance to be tested (as a serially diluted solution in DMSO) is added. The mixture is incubated at room temperature for 10 min. Then 20 μl of detection mix [1.2 nM Firefly Luciferase (Photinus pyralis luciferase, Promega), 29 μM dehydroluciferin (prepared according to Bitler & McElroy, Arch. Biochem. Biophys. 72, 358 (1957)), 122 μM luciferin (Promega), 153 μM ATP (Sigma) and 0.4 mM DTT (Sigma) in 50 mM TEA, 2 mM MgCl2, 0.1% BSA (fraction V), 0.005% Brij®, pH 7.5] are added. The enzyme reaction is started by adding 20 μl of substrate solution [1.25 mM guanosine 5′-triphosphate (Sigma) in 50 mM TEA, 2 mM MgCl2, 0.1% BSA (fraction V), 0.005% Brij®, pH 7.5] and measured continuously in a luminometer. The extent of the stimulation by the substance to be tested can be determined relative to the signal of the unstimulated reaction.
The activation of heme-free guanylate cyclase is examined by addition of 25 μM of 1H-1,2,4-oxadiazolo[4,3-a]quinoxalin-1-one (ODQ) to the enzyme solution and subsequent incubation for 30 minutes and compared to the stimulation of the native enzyme.

Consider `O=C(NCCCCC1(C(=O)O)CC1)C(c1ccc(CN2N=C(c3ccccc3)OCC2=O)cc1)C1CCCC1` (single isomer, unassigned; (+)) [Example 1, (+)-1-(4-{[2-cyclopentyl-2-{4-[(5-oxo-2-phenyl-5,6-dihydro-4H-1,3,4-oxadiazin-4-yl)methyl]phenyl}-acetyl]amino}butyl)cyclopropanecarboxylic acid], for which the “Stimulation (n-fold) of heme-free sGC, Basal” value on Heme-free sGC (0.1 μM Example 1) was 1.4 n-fold; at Heme-free sGC (1 μM Example 1) it was 1.7 n-fold; at Heme-free sGC (10 μM Example 1), 8.4 n-fold; at Heme-free sGC (100 μM Example 1), 111.8 n-fold. Besides, the “MEC (minimum effective concentration), sGC-activating activity in the CHO reporter cell” value on sGC stood at 10 nM. The “MEC (minimum effective concentration), activating action at the sGC enzyme” value in experiment [1] was 51 nM.
